Reference: PubChem BioAssay (NCI)
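Where inhibition never reached the appropriate level, the endpoint shown equals the highest concentration tested. Otherwise, values were interpolated linearly from a five-concentration, 48-hour dose response in 96-well plates. Definition used: TGI = concentration required for complete inhibition of growth.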

Key:
Assay in all cases: NCI anticancer screen, dose series, 48 h
COLO 205 colon = tested on: COLO 205 colon
RPMI-8226 leukemia = tested on: RPMI-8226 leukemia
NCI-H460 lung = tested on: NCI-H460 lung
EKVX NSCLC = tested on: EKVX NSCLC
CAKI-1 renal = tested on: CAKI-1 renal
SF-539 CNS = tested on: SF-539 CNS
OVCAR-4 ovarian = tested on: OVCAR-4 ovarian
MALME-3M melanoma = tested on: MALME-3M melanoma
SK-OV-3 ovarian = tested on: SK-OV-3 ovarian
K-562 leukemia = tested on: K-562 leukemia
A549 NSCLC = tested on: A549 NSCLC
OVCAR-8 ovarian = tested on: OVCAR-8 ovarian
HL-60(TB) leukemia = tested on: HL-60(TB) leukemia
M14 melanoma = tested on: M14 melanoma
ACHN renal = tested on: ACHN renal
786-0 renal = tested on: 786-0 renal
A498 renal = tested on: A498 renal
LOX IMVI melanoma = tested on: LOX IMVI melanoma
HCT-15 colon = tested on: HCT-15 colon
SW-620 colon = tested on: SW-620 colon
UO-31 renal = tested on: UO-31 renal
NCI/ADR-RES ovarian = tested on: NCI/ADR-RES ovarian
UACC-62 melanoma = tested on: UACC-62 melanoma
MCF7 breast = tested on: MCF7 breast
HOP-92 NSCLC = tested on: HOP-92 NSCLC
CCRF-CEM leukemia = tested on: CCRF-CEM leukemia
MDA-MB-435 = tested on: MDA-MB-435
SK-MEL-2 melanoma = tested on: SK-MEL-2 melanoma
SK-MEL-5 melanoma = tested on: SK-MEL-5 melanoma
HCC-2998 colon = tested on: HCC-2998 colon
HS 578T breast = tested on: HS 578T breast
MOLT-4 leukemia = tested on: MOLT-4 leukemia
HOP-62 NSCLC = tested on: HOP-62 NSCLC
HCT-116 colon = tested on: HCT-116 colon
SNB-19 CNS = tested on: SNB-19 CNS
OVCAR-5 ovarian = tested on: OVCAR-5 ovarian
IGROV1 ovarian = tested on: IGROV1 ovarian
TK-10 renal = tested on: TK-10 renal
NCI-H23 lung = tested on: NCI-H23 lung
HT29 colon = tested on: HT29 colon
SF-295 CNS = tested on: SF-295 CNS
MDA-N = tested on: MDA-N

Structure (SMILES): O=c1cc(-c2ccccc2)oc2ccc(-c3ccc4oc(-c5ccccc5)cc(=O)c4c3)cc12
- TGI (COLO 205 colon): 41.5 µM
- TGI (RPMI-8226 leukemia): 32.6 µM
- TGI (NCI-H460 lung): 41.9 µM
- TGI (EKVX NSCLC): 20.1 µM
- TGI (CAKI-1 renal): 46 µM
- TGI (SF-539 CNS): 30.8 µM
- TGI (OVCAR-4 ovarian): 38.9 µM
- TGI (MALME-3M melanoma): 34.7 µM
- TGI (SK-OV-3 ovarian): > 100 µM
- TGI (K-562 leukemia): 34.3 µM
- TGI (A549 NSCLC): 50.6 µM
- TGI (OVCAR-8 ovarian): 35.2 µM
- TGI (HL-60(TB) leukemia): 27.8 µM
- TGI (M14 melanoma): 30.2 µM
- TGI (ACHN renal): 59.2 µM
- TGI (786-0 renal): 72.5 µM
- TGI (A498 renal): 27.9 µM
- TGI (LOX IMVI melanoma): 33.2 µM
- TGI (HCT-15 colon): 30 µM
- TGI (SW-620 colon): > 100 µM
- TGI (UO-31 renal): 21.7 µM
- TGI (NCI/ADR-RES ovarian): 51.5 µM
- TGI (UACC-62 melanoma): 31.8 µM
- TGI (MCF7 breast): 42.1 µM
- TGI (HOP-92 NSCLC): 30.8 µM
- TGI (CCRF-CEM leukemia): 43.7 µM
- TGI (MDA-MB-435): 35.7 µM
- TGI (SK-MEL-2 melanoma): 32.7 µM
- TGI (SK-MEL-5 melanoma): 25.5 µM
- TGI (HCC-2998 colon): 30 µM
- TGI (HS 578T breast): 37.4 µM
- TGI (MOLT-4 leukemia): 27.5 µM
- TGI (HOP-62 NSCLC): 36.5 µM
- TGI (HCT-116 colon): 31.2 µM
- TGI (SNB-19 CNS): 50 µM
- TGI (OVCAR-5 ovarian): > 100 µM
- TGI (IGROV1 ovarian): 84.5 µM
- TGI (TK-10 renal): 61.6 µM
- TGI (NCI-H23 lung): 34.5 µM
- TGI (HT29 colon): > 100 µM
- TGI (SF-295 CNS): 43.4 µM
- TGI (MDA-N): 29 µM
